The nature of series [1]: log P by HPLC on reversed-phase column (EEC Directive 79/831 Annex V.A8). The series is classed as physicochemical. The following applies: reversed-phase C18 HPLC column, pH 2.3, 43° C. How it is done: The log P values given in the preparation examples and tables above are determined in accordance with EEC Directive 79/831 Annex V.A8 by HPLC (High Performance Liquid Chromatography) on a reversed-phase column (C 18). Temperature: 43° C.
In the acidic range, determination is carried out at pH 2.3 using the mobile phases 0.1% aqueous phosphoric acid and acetonitrile; linear gradient from 10% acetonitrile to 90% acetonitrile (in the tables marked with a)).
Calibration is carried out using unbranched alkan-2-ones (of 3 to 16 carbon atoms) with known lop P values (determination of the log P values by the retention times using linear interpolation between two successive alkanones).

Series [2] relates to Lucilia cuprina 1st instar larvae. The experiment in a line: Blowfly larval assay (Lucilia cuprina). The following applies: 100 ppm. It is filed as in vivo. How it is done:
(§1) 10 mg active compound are dissolve in 0.5 ml dimethyl sulphoxide. Serial dilutions are made to obtain the desired rates.
Approximately 20 Lucilia cuprina 1st instar larvae are transferred into a test tube containing 1 cm^3 of minced horse meat and 0.5 ml aqueous dilution of test compound. After 48 hrs percentage of larval mortality are recorded.
100% efficacy=all larvae are killed 0% efficacy=normally developed larvae after 48 hrs

Series [3] deals with Boophilus microplus (SP-resistant Parkhurst strain). The series is described as follows: Boophilus microplus test (INJ), resistant cattle tick, injection method. The series is classed as in vivo. The following applies: concentration of active compound 20 μM, injection into abdomen of adult satiated females. The protocol: Test with Resistant Monoxenic Cattle Tick/SP-Resistant Parkhurst Strain Injection Method
Boophilus microplus (INJ)
10 mg active compound are dissolve in 0.5 ml Dimethylsulfoxid. Serial dilutions are made to obtain the desired rates.
The test is carried out in 5 replications. 1 μl of the solutions is injected into the abdomen, and the animals are transferred to dishes and kept in a climate-controlled room. After 7 days, activity is checked by examination for deposition of fertile eggs. Eggs whose fertility is not externally visible are stored in glass tubes in a controlled-environment cabinet until the larvae have hatched after ca. 24 days. An activity of 100% denotes that none of the ticks has laid fertile eggs.

The next series relates to Musca domestica. The experiment in a line: Housefly assay (Musca domestica). The series is classed as in vivo. The settings on record: 100 ppm, adult flies. The protocol:
as §1
Prior to the assay, a piece of kitchen sponge (ca. Ø 1.5 cm) is soaked with 0.8 ml of sugar solution and 0.2 ml of aqueous compound dilution and is placed into a container (4×4×2 cm). 10 adult Musca domestica flies (WHO/N strain) are anaesthetized by CO2 and also placed into the container. The container is closed with a perforated lid. […]
100% efficacy=all flies are killed 0% efficacy=no flies are killed

The test system of another series is Spodoptera exigua. The series is described as follows: Spodoptera exigua test. The series is classed as in vivo. The settings on record: 168 h, cabbage leaves dipped, after 7 d, read-out: Kill rate in % after 7 d. How it is done: (§2) To produce a suitable preparation of active compound, 1 part by weight of active compound is mixed with the stated amounts of solvent and emulsifier, and the concentrate is diluted with emulsifier-containing water to the desired concentration.
Cabbage leaves (Brassica oleracea) are treated by being dipped into the preparation of active compound of the desired concentration and are populated with caterpillars of the army worm (Spodoptera exigua) while the leaves are still moist.
(§3) After the desired period of time, the kill in % is determined. 100% means that all caterpillars have been killed; 0% means that none of the caterpillars have been killed.

Another series concerns Plutella xylostella. The experiment in a line: Plutella test. It is filed as in vivo. The settings on record: 20 ppm, cabbage leaves dipped. How it is done: as §2
Cabbage leaves (Brassica oleracea) are treated by being dipped into the preparation of active compound of the desired concentration and are populated with caterpillars of the diamondback moth (Plutella xylostella) while the leaves are still moist.
as §3

The subject of a further series is Myzus persicae. The experiment in a line: Myzus test (spray application). The series is classed as in vivo. The settings on record: topical, 120 h, spray on Chinese cabbage leaves, after 5 d, read-out: Kill rate in % after 5 d. How it is done: Myzus Test (Spray Application)
as §2
Chinese cabbage leaves (Brassica pekinensis), which are infested by the green peach aphid (Myzus persicae), are treated by being sprayed with the preparation of the active compound of the desired concentration.
(§4) After the specified period of time, the mortality in % is determined. 100% means that all the […] have been killed; 0% means that none of the […] have been killed.

The subject of another series is Spodoptera frugiperda. The experiment in a line: Spodoptera frugiperda test (spray application). It is filed as in vivo. The following applies: topical, 168 h, 20 g/ha, spray on maize leaf slices, after 7 d, read-out: Kill rate in % after 7 d. How it is done: Spodoptera frugiperda Test (Spray Application)
as §2
Maize leave slices (Zea mays) are treated by being sprayed with the preparation of the active compound of the desired concentration and are infested with caterpillars of the fall army worm (Spodoptera frugiperda) after the leaves have dried.
as §4

In series [1], `Cc1cc(C(F)(C(F)F)C(F)(F)F)ccc1N` (stereo not drawn) [4-(1-Difluoromethyl-1,2,2,2-tetrafluoro-ethyl)-2-methyl-phenylamine] gave a chromatographic logP of 2.74. Still for that read-out and setting: then `Cc1cc(C(C(F)F)C(F)(F)F)ccc1N` (stereo not drawn) [4-(1-Difluoromethyl-2,2,2-trifluoro-ethyl)-2-methyl-phenylamine], with 2.02.

The compound `CSC[C@H](C)N=C1OC(=O)c2cccc(I)c21` [4-Iodo-3-[(S)-1-methyl-2-methylsulfanyl-ethylimino]-3H-isobenzofuran-1-one] yielded a chromatographic logP in [1] of 3.87. As for `CCSC[C@H](C)NC(=O)c1c(I)cccc1C(=O)Nc1ccc(C(F)(C(F)(F)F)C(F)(F)Br)cc1C` (stereo partly drawn) [Compound 1], the “Kill rate in % after 2 d” value in [2] is recorded as 100%. With `CCSC[C@H](C)NC(=O)c1c(I)cccc1C(=O)Nc1ccc(C(C(F)F)C(F)(F)F)cc1C` (stereo partly drawn) [Compound 4], in series [3], the “Kill rate in % after 7 d” value turned out to be 100%. The “Kill rate in % after 2 d” value in series [2] turned out to be 100%. In turn, `CCSC[C@H](C)NC(=O)c1c(I)cccc1C(=O)Nc1ccc(C(F)(C(F)F)C(F)(F)F)cc1C` (stereo partly drawn) [Compound 5] showed a melting point of 105 °C. The “Kill rate in % after 7 d” value in series [3] is listed as 100%. For the same compound, in the series with Musca domestica, the “Kill rate in % after 4 d” value turned out to be 100%. Regarding `CCSC[C@H](C)NC(=O)c1c(I)cccc1C(=O)Nc1ccc(C(F)(C(F)F)C(F)(F)F)cc1F` (stereo partly drawn) [Compound 8], the melting point is 138 to 141 °C. The pest or weed control at 20 ppm in the series with Spodoptera exigua came to 100%. `CSC[C@H](C)NC(=O)c1c(I)cccc1C(=O)Nc1ccc(C(C(F)F)C(F)(F)F)cc1C` (stereo partly drawn) [Compound 11]: the melting point amounted to 184 °C. Moreover, the “Kill rate in % after 7 d” value in the series with Plutella xylostella stood at 100%. `CCS(=O)(=O)C[C@H](C)NC(=O)c1c(I)cccc1C(=O)Nc1ccc(C(F)(C(F)F)C(F)(F)F)cc1C` (stereo partly drawn) [Compound 13]: the melting point was determined as 112 °C. Further, in the series on Spodoptera exigua, the pest or weed control at 20 ppm turned out to be 100%. Turning to `Cc1cc(C(F)(C(F)F)C(F)(F)F)ccc1NC(=O)c1cccc(I)c1C(=O)N[C@@H](C)CS(C)(=O)=O` (stereo partly drawn) [Compound 18], the melting point amounted to 124 °C. Also, the “Kill rate in % after 7 d” value in the series on Plutella xylostella came out at 100%. The compound `Cc1cc(C(F)(C(F)(F)F)C(F)(F)Br)ccc1NC(=O)c1cccc(I)c1C(=O)N[C@@H](C)CS(C)(=O)=O` (stereo partly drawn) [Compound 19, N^1-[4-(2-Bromo-1,2,2-trifluoro-1-trifluoromethyl-ethyl)-2-methyl-phenyl]-3-iodo-N^2-[2-methanesulfonyl-(S)-1-methyl-ethyl]-phthalamide] displayed a melting point of 128 °C. The pest or weed control at 20 ppm in the series with Spodoptera exigua turned out to be 100%. Consider `CCSC[C@H](C)NC(=O)c1c(I)cccc1C(=O)Nc1ccc(C(C(F)F)C(F)(F)F)cc1F` (stereo partly drawn) [Compound 21], for which the melting point is 144 °C. Also, in the series with Musca domestica, the “Kill rate in % after 4 d” value is recorded as 100%. In turn, `CCSC[C@H](C)NC(=O)c1c(I)cccc1C(=O)Nc1ccc(C(C(F)F)C(F)(F)F)cc1Cl` (stereo partly drawn) [Compound 23] gave a melting point of 165 °C. For the same compound, in series [3], the “Kill rate in % after 7 d” value came to 100%. `CCSC[C@H](C)NC(=O)c1c(I)cccc1C(=O)Nc1ccc(C(C(F)F)C(F)(F)F)cc1Br` (stereo partly drawn) [Compound 24] yielded a melting point of 160 °C. In addition, in [3], the “Kill rate in % after 7 d” value is recorded as 100%.

With `CCS(=O)(=O)C[C@H](C)NC(=O)c1c(I)cccc1C(=O)Nc1ccc(C(F)(C(F)F)C(F)(F)F)cc1Cl` (stereo partly drawn) [Compound 25], in series [2], the “Kill rate in % after 2 d” value was found to be 90%.

Compound `C[C@@H](CS(C)(=O)=O)NC(=O)c1c(I)cccc1C(=O)Nc1ccc(C(F)(C(F)F)C(F)(F)F)cc1Cl` (stereo partly drawn) [Compound 27] had a melting point of 184 °C. The pest or weed control at 20 ppm in the series with Spodoptera exigua was found to be 100%.

Turning to `C[C@@H](CS(C)(=O)=O)NC(=O)c1c(I)cccc1C(=O)Nc1ccc(C(C(F)F)C(F)(F)F)cc1Cl` (stereo partly drawn) [Compound 28], the melting point was in the range of 116 to 120 °C. Further, in the series on Musca domestica, the “Kill rate in % after 4 d” value turned out to be 100%.

As for `C[C@@H](CS(C)(=O)=O)NC(=O)c1c(I)cccc1C(=O)Nc1ccc(C(C(F)F)C(F)(F)F)cc1Br` (stereo partly drawn) [Compound 31], in the series on Myzus persicae, the pest or weed control at 100 g/ha is 100%. Further, in the series with Musca domestica, the “Kill rate in % after 4 d” value is 100%. In the case of `C[C@@H](CS(C)(=O)=O)NC(=O)c1c(I)cccc1C(=O)Nc1ccc(C(F)(C(F)F)C(F)(F)F)cc1F` (stereo partly drawn) [Compound 32], the “Kill rate in % after 4 d” value with Musca domestica worked out at 100%. The “Kill rate in % after 2 d” value in [2] came out at 100%. `C[C@@H](CS(C)(=O)=O)NC(=O)c1c(I)cccc1C(=O)Nc1ccc(C(C(F)F)C(F)(F)F)cc1F` (stereo partly drawn) [Compound 33] returned a melting point of 144 to 147 °C. In [3], the “Kill rate in % after 7 d” value worked out at 100%. Moreover, in the series with Musca domestica, the “Kill rate in % after 4 d” value worked out at 100%. `CCS(=O)(=O)C[C@H](C)NC(=O)c1c(I)cccc1C(=O)Nc1ccc(C(F)(C(F)F)C(F)(F)F)cc1Br` (stereo partly drawn) [Compound 34] showed a melting point of 134 °C. For the same compound, in the series with Spodoptera exigua, the pest or weed control at 20 ppm amounted to 100%. As to `CCS(=O)(=O)C[C@H](C)NC(=O)c1c(I)cccc1C(=O)Nc1ccc(C(C(F)F)C(F)(F)F)cc1Br` (stereo partly drawn) [Compound 35], the melting point was 122 °C. Further, the “Kill rate in % after 4 d” value with Musca domestica is recorded as 100%. Consider `CCS(=O)(=O)C[C@H](C)NC(=O)c1c(I)cccc1C(=O)Nc1ccc(C(F)(C(F)F)C(F)(F)F)cc1F` (stereo partly drawn) [Compound 36], for which the “Kill rate in % after 2 d” value in series [2] is 100%. On to `CCS(=O)(=O)C[C@H](C)NC(=O)c1c(I)cccc1C(=O)Nc1ccc(C(C(F)F)C(F)(F)F)cc1F` (stereo partly drawn) [Compound 37], for which, in series [2], the “Kill rate in % after 2 d” value is 100%. In turn, `CSC[C@H](C)NC(=O)c1c(Cl)cccc1C(=O)Nc1ccc(C(F)(C(F)(F)F)C(F)(F)Br)cc1C` (stereo partly drawn) [Compound 38] displayed a melting point of 184 to 186 °C. In addition, in the series on Plutella xylostella, the “Kill rate in % after 7 d” value came out at 100%. `C[C@@H](CS(C)(=O)=O)NC(=O)c1c(Cl)cccc1C(=O)Nc1ccc(C(F)(C(F)F)C(F)(F)F)cc1Cl` (stereo partly drawn) [Compound 47] displayed a melting point of 180 °C. The pest or weed control at 20 ppm with Spodoptera exigua turned out to be 100%.

In the case of `CCSC[C@H](C)NC(=O)c1c(Br)cccc1C(=O)Nc1ccc(C(C(F)F)C(F)(F)F)cc1Cl` (stereo partly drawn) [Compound 54], the melting point came to 100 °C. Also, the “Kill rate in % after 7 d” value with Plutella xylostella is listed as 100%. `CCS(=O)(=O)C[C@H](C)NC(=O)c1c(Cl)cccc1C(=O)Nc1ccc(C(C(F)F)C(F)(F)F)cc1Cl` (stereo partly drawn) [Compound 56] showed a melting point of 116 °C. Besides, the pest or weed control at 20 ppm in the series on Spodoptera exigua came to 100%. `CCS(=O)(=O)C[C@H](C)NC(=O)c1c(Br)cccc1C(=O)Nc1ccc(C(C(F)F)C(F)(F)F)cc1Cl` (stereo partly drawn) [Compound 59] yielded a melting point of 121 °C. Besides, the pest or weed control at 20 ppm in the series with Spodoptera exigua was 100%. `CSC[C@H](C)NC(=O)c1c(Br)cccc1C(=O)Nc1ccc(C(F)(C(F)F)C(F)(F)F)cc1Br` (stereo partly drawn) [Compound 67]: the melting point lay in the range of 138 to 142 °C. The “Kill rate in % after 7 d” value in the series with Plutella xylostella is listed as 100%. Turning to `CCS(=O)(=O)C[C@H](C)NC(=O)c1c(Br)cccc1C(=O)Nc1ccc(C(F)(C(F)F)C(F)(F)F)cc1Br` (stereo partly drawn) [Compound 69], the pest or weed control at 20 g/ha in the series with Spodoptera frugiperda came to 100%. Also, the “Kill rate in % after 2 d” value in series [2] was determined as 100%.

A word on the chromatographic logP: it is a lipophilicity value derived from retention on a column. By melting point is commonly meant the temperature, or range, at which the solid turns liquid.

The record behind these values is patent publication US20090118375A1, “Optically active phthalamides” (priority 2004, published 2009).
